In patent publication US20240368209A1, “GEMCITABINE ANTICANCER DERIVATIVE AND ANTICANCER PHARMACEUTICAL USE” (ASCENTAWITS PHARMACEUTICALS, LTD., priority 2021, published 2024):
Where two headings read alike, the source gives them in different places.

Test system: H460 non-small cell lung cancer human tumor cell line
Test: In vitro human tumor cell line cytotoxicity (proliferation) assay on H460, CTG, with or without AST-3021
Type: cell-based
Settings: for IC50: Homo sapiens
Protocol: In vitro human tumor cell line cytotoxicity assay was used.
In vitro proliferation data on the H460 non-small cell lung cancer human tumor cell line (cell line which highly expresses AKR1C3) is reported below in the compound table.
IC50 values were obtained with the following steps:
Specifically, exponentially growing cells were seeded at a density of 2×10^3 cells/100 μL/well in a 96-well plate and incubated at 37° C. in 5% CO2, 95% air and 100% relative humidity for 24 hours. The test compound was administered alone: 24 hours after cell plating, the compound acted alone, 99 μL of growth medium per well was added, and 1 μL of the compound prepared at 200× was added, and the plate was shaken gently to ensure even mixing, then placed into an incubator of 37° C., 5% CO2. After further cultivation for 72 hours, the number of live cells was detected using CTG. The CTG detection method was as follows: the cell plate to be tested was placed at room temperature to equilibrate for 30 minutes, and 100 μL of medium per well was discarded. 25 μL of CTG reagent (CellTiter-Glo® kit) per well was added, and the plate was placed in a high-speed shaker to oscillate for 2 minutes, and placed at room temperature in the dark for 30 minutes. The chemiluminescence signal value was read using a multimode microplate reader, with a read time of 1000 ms.
Similarly, in order to further verify that the compounds were activated by human AKR1C3 (aldosterone reductase family 1 member C3), the effect of some of the compounds on the proliferation of H460 cancer cells was tested with pretreatment with a specific AKR1C3 enzyme inhibitor AST-3021 (3 μM). The detailed experimental procedure was as follows: 24 hours after cell plating, 98 μL of growth medium per well was added, and 1 μL of 200×compound AST-3021 was added to each well, and the plate was shaken gently to ensure even mixing, and then placed into an incubator; after 2 hours, 1 μL of the test compound prepared at 200× was added, and the plate was shaken gently to ensure even mixing and then laced into an incubator of 37° C., 5% CO2. The inhibitor used was compound 36, i.e.
in Flanagan et al., Bioorganic and Medicinal Chemistry (2014), page 962-977, and is referred to as AST-3021 in this invention. The values measured in this case are values corresponding to +AST-3021 IC50 (nM) in Table 1.
The value corresponding to +AST-3021 IC50 (nM) divided by the value corresponding to IC50 (nM) is the specific activation ratio. The relative magnitude of the specific activation ratio can be used to evaluate whether this compound is a cytotoxic compound activated by human AKR1C3 (aldosterone reductase family 1 member C3): when the specific activation ratio is less than 1, it is considered that the compound is not activated by human AKR1C3 (aldosterone reductase family 1 member C3); when the specific activation ratio is greater than 1, it is considered that the compound is activated by human AKR1C3 (aldosterone reductase family 1 member C3), and the higher the value, the higher the activation degree and the selectivity of AKR1C3.

[1] = NCI-H460, compound alone, 72 hours, read-out: IC50
[2] = NCI-H460, pretreatment with AKR1C3 inhibitor AST-3021 (3 μM), read-out: +AST-3021 IC50

CC(C)NP(=O)(OCc1ccc([N+](=O)[O-])c(Oc2ccc(-c3ccc(F)cc3)cc2)c1)OCC1OC(n2ccc(N)nc2=O)C(F)(F)C1O (stereo not drawn) [Compound H38]
specific activation ratio (+AST-3021 IC50/IC50): 507.6 | IC50 [1]: 65.2 nM | IC50 [2]: 33100 nM

Nc1ccn(C2OC(COP(=O)(NC3CCCCC3)OCc3ccc([N+](=O)[O-])c(Oc4ccc(C(F)(F)F)cc4)c3)C(O)C2(F)F)c(=O)n1 (stereo not drawn) [Compound H18]
specific activation ratio (+AST-3021 IC50/IC50): 3.7 | IC50 [1]: 461 nM | IC50 [2]: 1700 nM

Nc1ccn(C2OC(COP(=O)(OCc3ccc([N+](=O)[O-])c(Oc4ccc(C(F)(F)F)cc4)c3)Oc3ccccc3)C(O)C2(F)F)c(=O)n1 (stereo not drawn) [Compound D7, reference compound]
specific activation ratio (+AST-3021 IC50/IC50): 0.77 | IC50 [1]: 50.3 nM | IC50 [2]: 38.9 nM

Nc1ccn(C2OC(COP(=O)(NC3CCCCC3)OCc3ccc([N+](=O)[O-])c(Oc4ccc(-c5ccc(F)cc5)c(F)c4)c3)C(O)C2(F)F)c(=O)n1 (stereo not drawn) [Compound H17]
specific activation ratio (+AST-3021 IC50/IC50): 27.2 | IC50 [1]: 397 nM | IC50 [2]: 10800 nM

CCNP(=O)(OCc1ccc([N+](=O)[O-])c(Oc2cccc(C(=O)N3CCC(C(F)(F)F)CC3)c2)c1)OCC1OC(n2ccc(N)nc2=O)C(F)(F)C1O (stereo not drawn) [Compound H16]
specific activation ratio (+AST-3021 IC50/IC50): 8.9 | IC50 [1]: 377 nM | IC50 [2]: 3370 nM

CCNP(=O)(OCc1ccc([N+](=O)[O-])c(Oc2ccc3nc(C)sc3c2)c1)OCC1OC(n2ccc(N)nc2=O)C(F)(F)C1O (stereo not drawn) [Compound H20]
specific activation ratio (+AST-3021 IC50/IC50): 6.2 | IC50 [1]: 232 nM | IC50 [2]: 1430 nM

CNP(=O)(OCc1ccc([N+](=O)[O-])c(Oc2ccc(-c3ccc(F)cc3)c(F)c2)c1)OCC1OC(n2ccc(N)nc2=O)C(F)(F)C1O (stereo not drawn) [Compound H1]
specific activation ratio (+AST-3021 IC50/IC50): 24.2 | IC50 [1]: 29.4 nM | IC50 [2]: 712 nM

CC(OP(=O)(OCC1OC(n2ccc(N)nc2=O)C(F)(F)C1O)N(C)C)c1ccc([N+](=O)[O-])c(Oc2ccc(-c3ccc(F)cc3)c(F)c2)c1 (stereo not drawn) [Compound D9, reference compound]
specific activation ratio (+AST-3021 IC50/IC50): 56.5 | IC50 [1]: 67.8 nM | IC50 [2]: 3830 nM

CCNP(=O)(OCc1ccc([N+](=O)[O-])c(Oc2ccc(C(F)(F)F)cc2)c1)OCC1OC(C2N=CC(N)=NC2=O)C(F)(F)C1O (stereo not drawn) [Compound H6]
specific activation ratio (+AST-3021 IC50/IC50): 12.9 | IC50 [1]: 178 nM | IC50 [2]: 2300 nM

CNP(=O)(OCC1OC(n2ccc(N)nc2=O)C(F)(F)C1O)OC(C)c1ccc([N+](=O)[O-])c(Oc2ccc(C(F)(F)F)cc2)c1 (stereo not drawn) [Compound H23]
specific activation ratio (+AST-3021 IC50/IC50): 29.8 | IC50 [1]: 379 nM | IC50 [2]: 11300 nM

CC(C)NP(=O)(OCc1ccc([N+](=O)[O-])c(Oc2ccc(C(=O)N3CCCCC3)cc2)c1)OCC1OC(n2ccc(N)nc2=O)C(F)(F)C1O (stereo not drawn) [Compound H36]
specific activation ratio (+AST-3021 IC50/IC50): 3.1 | IC50 [1]: 382 nM | IC50 [2]: 1170 nM

CC(C)NP(=O)(OCc1ccc([N+](=O)[O-])c(Oc2cccc(C(=O)N3CCCCC3)c2)c1)OCC1OC(n2ccc(N)nc2=O)C(F)(F)C1O (stereo not drawn) [Compound H35]
specific activation ratio (+AST-3021 IC50/IC50): 8.6 | IC50 [1]: 454 nM | IC50 [2]: 3900 nM

CC(C)NP(=O)(OCc1ccc([N+](=O)[O-])c(Oc2ccc(-c3ccc(Cl)cc3)c(F)c2)c1)OCC1OC(n2ccc(N)nc2=O)C(F)(F)C1O (stereo not drawn) [Compound H42]
specific activation ratio (+AST-3021 IC50/IC50): 333.5 | IC50 [1]: 57.1 nM | IC50 [2]: 19000 nM

CCNP(=O)(OCc1ccc([N+](=O)[O-])c(Oc2cccc(C(=O)N3CCCCC3)c2)c1)OCC1OC(n2ccc(N)nc2=O)C(F)(F)C1O (stereo not drawn) [Compound H15]
specific activation ratio (+AST-3021 IC50/IC50): 5.0 | IC50 [1]: 486 nM | IC50 [2]: 2420 nM

CCNP(=O)(OCc1ccc([N+](=O)[O-])c(Oc2ccc(-c3ccc(F)cc3)c(F)c2)c1)OCC1OC(n2ccc(N)nc2=O)C(F)(F)C1O (stereo not drawn) [Compound H2]
specific activation ratio (+AST-3021 IC50/IC50): 47.8 | IC50 [1]: 19.9 nM | IC50 [2]: 951 nM

Nc1ccn(C2OC(COP(=O)(OCc3ccc([N+](=O)[O-])c(Oc4ccc(-c5ccc(F)cc5)c(F)c4)c3)Oc3ccccc3)C(O)C2(F)F)c(=O)n1 (stereo not drawn) [Compound D6, reference compound]
specific activation ratio (+AST-3021 IC50/IC50): 0.54 | IC50 [1]: 20.6 nM | IC50 [2]: 11.2 nM

NC1=NC(=O)C(C2OC(COP(=O)(NCc3ccccc3)OCc3ccc([N+](=O)[O-])c(Oc4ccc(C(F)(F)F)cc4)c3)C(O)C2(F)F)N=C1 (stereo not drawn) [Compound H9]
specific activation ratio (+AST-3021 IC50/IC50): 23.2 | IC50 [1]: 78.2 nM | IC50 [2]: 1810 nM

Nc1ccn(C2OC(COP(=O)(NCCBr)OCc3ccc([N+](=O)[O-])c(Oc4ccc(-c5ccc(F)cc5)c(F)c4)c3)C(O)C2(F)F)c(=O)n1 (stereo not drawn) [Compound H4]
specific activation ratio (+AST-3021 IC50/IC50): 6.2 | IC50 [1]: 5.15 nM | IC50 [2]: 31.7 nM

CC(C)NP(=O)(OCc1ccc([N+](=O)[O-])c(Oc2ccc(-c3ccc(C(F)(F)F)cc3)cc2)c1)OCC1OC(n2ccc(N)nc2=O)C(F)(F)C1O (stereo not drawn) [Compound H39]
specific activation ratio (+AST-3021 IC50/IC50): 12.7 | IC50 [1]: 2180 nM | IC50 [2]: 27700 nM

CC(C)NP(=O)(OCc1ccc([N+](=O)[O-])c(Oc2ccc(-c3cccc(F)c3)cc2)c1)OCC1OC(n2ccc(N)nc2=O)C(F)(F)C1O (stereo not drawn) [Compound H44]
specific activation ratio (+AST-3021 IC50/IC50): 336.1 | IC50 [1]: 51.3 nM | IC50 [2]: 17300 nM

CCNP(=O)(OCC1OC(n2ccc(N)nc2=O)C(F)(F)C1O)OC(C)c1ccc([N+](=O)[O-])c(Oc2cccc(C(=O)N3CCCCC3)c2)c1 (stereo not drawn) [Compound H25]
specific activation ratio (+AST-3021 IC50/IC50): 9.6 | IC50 [1]: 515 nM | IC50 [2]: 4940 nM

Nc1ccn(C2OC(COP(=O)(NC3CCCC3)OCc3ccc([N+](=O)[O-])c(Oc4ccc(-c5ccc(F)cc5)c(F)c4)c3)C(O)C2(F)F)c(=O)n1 (stereo not drawn) [Compound H29]
specific activation ratio (+AST-3021 IC50/IC50): 47.17 | IC50 [1]: 82.2 nM | IC50 [2]: 3880 nM

CCN(CC)P(=O)(OCc1ccc([N+](=O)[O-])c(Oc2ccc(-c3ccc(F)cc3)c(F)c2)c1)OCC1OC(n2ccc(N)nc2=O)C(F)(F)C1O (stereo not drawn) [Compound D2, reference compound]
specific activation ratio (+AST-3021 IC50/IC50): 45.1 | IC50 [1]: 96.9 nM | IC50 [2]: 4370 nM

CCNP(=O)(OCc1ccc([N+](=O)[O-])c(Oc2ccc(-c3ccc(F)cn3)cc2)c1)OCC1OC(n2ccc(N)nc2=O)C(F)(F)C1O (stereo not drawn) [Compound H28]
specific activation ratio (+AST-3021 IC50/IC50): 20.4 | IC50 [1]: 233 nM | IC50 [2]: 4760 nM

CNP(=O)(OCc1ccc([N+](=O)[O-])c(Oc2ccc(C(F)(F)F)cc2)c1)OCC1OC(n2ccc(N)nc2=O)C(F)(F)C1O (stereo not drawn) [Compound H5]
specific activation ratio (+AST-3021 IC50/IC50): 4.2 | IC50 [1]: 117 nM | IC50 [2]: 499 nM

CCNP(=O)(OCc1ccc([N+](=O)[O-])c(Oc2ccc(C(=O)N3CCCCC3)cc2)c1)OCC1OC(n2ccc(N)nc2=O)C(F)(F)C1O (stereo not drawn) [Compound H13]
specific activation ratio (+AST-3021 IC50/IC50): 9.4 | IC50 [1]: 393 nM | IC50 [2]: 3680 nM

CCNP(=O)(OCC1OC(n2ccc(N)nc2=O)C(F)(F)C1O)OC(C)c1ccc([N+](=O)[O-])c(Oc2ccc(-c3ccc(F)cc3)c(F)c2)c1 (stereo not drawn) [Compound H21]
specific activation ratio (+AST-3021 IC50/IC50): 34.8 | IC50 [1]: 127 nM | IC50 [2]: 4410 nM

NC1=NC(=O)C(C2OC(COP(=O)(NCc3ccccc3)OCc3ccc([N+](=O)[O-])c(Oc4ccc(-c5ccc(F)cc5)c(F)c4)c3)C(O)C2(F)F)N=C1 (stereo not drawn) [Compound H8]
specific activation ratio (+AST-3021 IC50/IC50): 44.8 | IC50 [1]: 67.5 nM | IC50 [2]: 3020 nM

CC(C)NP(=O)(OCc1ccc([N+](=O)[O-])c(Oc2ccc(-c3ccccc3F)cc2)c1)OCC1OC(n2ccc(N)nc2=O)C(F)(F)C1O (stereo not drawn) [Compound H43]
specific activation ratio (+AST-3021 IC50/IC50): 257.8 | IC50 [1]: 60 nM | IC50 [2]: 15500 nM

CC(OP(=O)(NCCBr)OCC1OC(n2ccc(N)nc2=O)C(F)(F)C1O)c1ccc([N+](=O)[O-])c(Oc2ccc(-c3ccc(F)cc3)c(F)c2)c1 (stereo not drawn) [Compound H22]
specific activation ratio (+AST-3021 IC50/IC50): 19.2 | IC50 [1]: 124 nM | IC50 [2]: 2370 nM

CCNP(=O)(OCc1ccc([N+](=O)[O-])c(Oc2ccc3ncccc3c2)c1)OCC1OC(n2ccc(N)nc2=O)C(F)(F)C1O (stereo not drawn) [Compound H19]
specific activation ratio (+AST-3021 IC50/IC50): 3.4 | IC50 [1]: 150 nM | IC50 [2]: 510 nM
